PubChem BioAssay AID1508612

Assay: passive permeability, PAMPA, ADME assay (AID 1508612)
Conditions: pH 7.4, 30.0 min, 50.0 µM

SMILES | Papp [×10⁻⁶ cm/s]
Cc1ccc(S(=O)(=O)Nc2cnccc2C(=O)Nc2nc(-c3ccc(Oc4ccccc4)cc3)cs2)cc1 | 44.4
Cc1cccc(C)c1C(=O)Nc1cccc([S+](=O)([O-])N(C)C)c1 | 355
N#Cc1cccc(NC(=O)c2sc3nc4c(cc3c2N)N2CCC4CC2)c1 | 917
Cc1ccc(S(=O)(=O)Nc2cnccc2C(=O)Nc2ccc(S(=O)(=O)Nc3nccs3)cc2)cc1 | < 1
CCOc1ccc(CCNC(=O)c2cccc(C(=O)c3ccccc3)c2)cc1OCC | > 1000
Cc1cc(CNC(=O)c2ccc3c(c2)n(CC2CC2)c(=O)n3C2CCCCC2)on1 | 964
CCCNC(=O)c1ccc2c(c1)N=C(C)c1c(C)ccc(C)c1S2 | > 1000
NC(=O)C1CCN(c2nc(-c3ccc4c(c3)OCO4)cs2)CC1 | 740
CCN1CCN(c2ncc3c(n2)CCN(Cc2cc(Br)cs2)C3)CC1 | 787
Cn1cnc(-c2nccc3c(=O)[nH]c(OCCCC(F)(F)F)nc23)c1 | 109
OCc1ccc(-c2cc3c(ccn3Cc3cccnc3)c(C3=CCOCC3)n2)cc1 | 478
Cc1ccc(NC(=O)c2cc(-c3ccc(C)o3)nc3ccccc23)nc1 | > 1000
Cn1ccc2c(C(=O)NCCC(N)=O)nc(-c3cccc(CO)c3)cc21 | 29.9
COc1ccc(NC2=C(c3ccc(C(F)(F)F)cc3)C(=O)c3ccccc32)cc1 | 82
COc1cc2cc(CN3CCC(N(C)C)C3)c(-c3cccc(Cl)c3)nc2cc1OC (stereo not drawn) | > 1000
NC(=O)C1CCN(c2nc(-c3ccc(Br)cc3)cs2)CC1 | 241
COc1cncc(Nc2ncc(-c3cccc(N(C)C)c3)c3c2OCC3)c1 | < 1
O=C(c1cc2ccccc2[nH]1)N1CCc2c(n(Cc3cccnc3)n(CCc3ccccc3)c2=O)C1 | 381
Cc1ccc2oc(NC3=NC4(CCCC4)C4=C(CCCC4=O)N3)nc2c1 | 543
O=C(NCc1ccco1)c1nc2nc(-c3cccs3)cc(C(F)(F)F)n2n1 | 257
Cc1ccc(S(=O)(=O)Nc2cncc(C(=O)Nc3nc(-c4ccccc4)cs3)c2)cc1 | 71.2
O=C(Nc1ccc(S(=O)(=O)Nc2nccs2)cc1)c1ccc2ccccc2c1 | 4.69
O=C1NC(=O)C(c2cnc3ccccn23)=C1c1cn2c3c(cccc13)CN(C(=O)N1CCOCC1)CC2 | 82.9
CN1CCN(c2ccc(Nc3nn4c(=O)c5ccccc5nc4s3)cc2)CC1 | 653
O=C(CCCCn1c(=O)[nH]c2ccsc2c1=O)N1CCN(c2cccc(Cl)c2)CC1 | 855
CNc1nc(C#N)c(-c2cccc3ccccc23)o1 | > 1000

SMILES | Papp [×10⁻⁶ cm/s]
Cc1ccccc1-c1nc(NCc2cccs2)c2ccccc2n1 | 406
NC(=O)C1CCN(c2ncc(-c3ccc4c(c3)OCO4)s2)CC1 | 692
O=C(NC1CCCc2c1cnn2-c1ccc(F)cc1F)c1ccc(C2(C(F)(F)F)N=N2)cc1 (stereo not drawn) | < 1
O=C(NCCCn1ccnc1)c1ccc(-c2ncc3cnc(-c4cccc(F)c4)cn23)cc1 | < 1
Cc1ccc(C(=O)NC2CCN(c3cnn(CC4CC4)c(=O)c3)CC2)cc1C | 473
COc1ccccc1CNc1ccc(N2CCCCC2)cc1 | > 1000
NC(=O)c1cnc(N[C@@H]2CCCC[C@@H]2N)nc1Nc1cccc(-n2nccn2)c1 | 11.7
CC(C)Nc1oc(-c2cccc3ccccc23)nc1C#N | > 1000
Cc1cc(C)nc(NC(=S)N2CCN(c3cccc([N+](=O)[O-])c3)CC2)c1 | > 1000
Cc1cc(-c2nnc3n2CCCCC3)c(C)n1-c1cccc(C(F)(F)F)c1 | > 1000
O=C(Nc1ccc(Cl)c(S(=O)(=O)N2CCOCC2)c1)c1ccc(S(=O)(=O)N2CCOCC2)cc1 | 936
O=C1Nc2cc(Cl)ccc2/C1=C\c1cc(Cl)c(O)c(Cl)c1 | 78
Cc1ccc(S(=O)(=O)Nc2cc(Cl)ccc2C(=O)Nc2nc(-c3ccccc3)cs2)cc1 | 23.4
Cc1ccc(S(=O)(=O)Nc2ccccc2C(=O)Nc2nc(-c3ccccc3)co2)cc1 | 358
COc1cccc(CNc2ccc(S(=O)(=O)Nc3ccc(N4CCNCC4)nc3)cc2)c1O | 10.7
Cc1noc(/C=C/c2ccccc2F)c1S(=O)(=O)N1CCC(C(=O)Nc2ccc(C#N)cc2)CC1 | 8.58
Cc1cccc(-n2cnc3cc(C(=O)N4CCCC(C)(C)C4)ccc32)c1 | > 1000
c1ccc2c(N3CCOCC3)nc(-c3ccncc3)nc2c1 | > 1000
CCOC(=O)c1csc(NC(=O)c2ccncc2NS(=O)(=O)c2ccc(C)cc2)n1 | 114
CN(C)c1cccc(-c2c3c(=O)n(-c4ccccc4Cl)[nH]c3cc(=O)n2C)c1 | 13.9
O=C(Nc1ccc(C(=O)N2CCCC2)cc1)c1ccccc1F | 139
[2H]C([2H])(Nc1nc(-c2ccccc2C([2H])(C([2H])([2H])[2H])C([2H])([2H])[2H])ncc1C)c1ccc(-n2ccnn2)cc1 | > 1000
CCOc1ccc(CCNC(=O)c2cc3sccc3n2Cc2ccccc2)c(F)c1OCC | < 1
CCC(=O)NC(c1cccs1)c1cc([N+](=O)[O-])c2cccnc2c1O (stereo not drawn) | 36.3
COc1cccc(CNc2ccc(S(=O)(=O)Nc3cccs3)cc2)c1O | 572
COc1cccc(CNCc2cccn2-c2nnc(N3CCN(c4ccccc4)CC3)s2)c1 | > 1000

SMILES | Papp [×10⁻⁶ cm/s]
CC[C@@](C)(Nc1ccnc(-c2c[nH]c3ncccc23)n1)C(=O)NCC(F)(F)F | 612
COc1ccc(NC(=O)c2cccnc2C)cc1S(=O)(=O)Nc1ccc(Br)cc1 | 522
CC(C)c1nc2oc3c(NCCN(C)C)ncnc3c2c2c1COC(C)(C)C2 | > 1000
Cc1ccc(-c2cc(C(=O)Nc3cccc(S(=O)(=O)Nc4nccs4)c3)c3ccccc3n2)cc1C | 22.3
Cn1c(=O)c2c(-c3ccc(Cl)cc3)n(CCc3ccccc3)cc2n(C)c1=O | > 1000
Cc1ccc(-n2nc3c(=O)n(CCCC(=O)NCc4ccccc4F)nc(C)c3c2C)cc1 | 920
CCOc1ccc(CCNC(=O)c2cc3ccccc3n2Cc2ccccn2)cc1OCC | > 1000
COC(=O)CNC(=O)c1nc(-c2ccc([S+](C)(=O)[O-])cc2)c2ccccn12 | 330
Fc1cc(Nc2nc(-c3ccncc3)nc3ccccc23)ccc1OCC(F)(F)F | 58.8
Cc1cccc(-n2nc(C)c3c2NC(=O)CSC3c2ccccc2Cl)c1 (stereo not drawn) | > 1000
Cn1cc(Nc2cnccc2C(=O)O)c2cccnc21 | 3.2
CCCCOc1ccccc1C(=O)Nc1ccccc1C(=O)Nc1cccc(S(=O)(=O)C(F)(F)F)c1 | 5.2
O=C(O)CCNc1cc(N2CCc3ccccc3CC2)nc(-c2cccnc2)n1 | 56.4
CCCOC(c1cc2nccc(C(=O)O)c2[nH]1)c1ccccc1Cl (stereo not drawn) | 12.9
Cc1c(Cl)cccc1NC(=O)CNS(=O)(=O)c1cccs1 | 115
O=C(Nc1nc(-c2ccccc2)cs1)c1ccncc1NS(=O)(=O)c1ccc(C(F)(F)F)cc1 | 316
COc1ccc(NC(=O)c2[nH]c(C)c(C(C)=O)c2C)cc1S(=O)(=O)N1CCCCCC1 | 989
CNc1nc2c(s1)C(c1ccc(Cl)cc1)CC(=O)N2 (stereo not drawn) | 308
CCN(CC)S(=O)(=O)c1cccc(C(=O)Nc2ccc(C#N)cc2)c1 | > 1000
O=C(Nc1ncc(Cc2ccc(C(F)(F)F)cc2)s1)c1cnc(-c2ccccc2)[nH]1 | < 1
CNc1nc2c(s1)C(c1ccccc1F)CC(=O)N2 (stereo not drawn) | 52
CCOc1ccc(-c2cn3c(n2)sc2cc(C(=O)NCCCN(CC)CC)ccc23)cc1 | > 1000
O=C(Nc1nc(-c2ccccc2)cs1)c1ccncc1NS(=O)(=O)c1ccc(F)cc1 | 748
CO[C@@H]1/C=C\O[C@@]2(C)Oc3c(C)c(O)c4c(c3C2=O)C(=N[C@H]2CC[C@H](O)O[C@@H]2C)C=C(NC(=O)/C(C)=C\C(=O)[C@@H]2C[C@@H]2[C@@H](O)[C@H](C)[C@@H](O)[C@H](C)[C@H](OC(C)=O)[C@@H]1C)C4=O | 2.33
COc1ccc(CCNc2ncnc3onc(C)c23)c(OC)c1 | 752
CCCCCCN(CCCCCC)C(=O)Cc1c(-c2ccc(F)cc2)[nH]c2ccccc12 | 11.7

SMILES | Papp [×10⁻⁶ cm/s]
O=c1c2c([nH]c3ccc(Br)cc13)CCCC2 | 62.4
CCn1c(-c2nonc2N)nc2cnc(Oc3cccc(NC(=O)c4ccc(OCCN5CCOCC5)cc4)c3)cc21 | < 1
COC(=O)c1ccc2c(c1)nc1n2[C@@H](CNC(C)=O)COC1 | 4.45
COc1ccccc1-c1csc(N2CCC(C(N)=O)CC2)n1 | 693
NC(=O)C1CCN(c2nc(-c3cccc(N)c3)cs2)CC1 | 86.8
CCN1C(=O)c2ccccc2S(=O)c2ccc(C(=O)NCc3ccc(OC)cc3)cc21 (stereo not drawn) | 883
CCCNC(=O)Nc1ccc(Oc2ncnc3cc(OC)c(OC)cc23)cc1Cl | 362
O=C(Nc1ccc(S(=O)(=O)Nc2nccs2)cc1)c1ccnc(-c2ccccc2)c1 | < 1
O=C(O)c1ccnc2cc(C(OCCN3CCCCC3)c3ccccc3Cl)[nH]c12 (stereo not drawn) | < 1
Cc1ccc(-c2c(CN3CCN(c4cccc(C(F)(F)F)c4)CC3)csc2C)cc1 | < 1
O=C(NC(c1ccccc1)c1cc(Cl)c2cccnc2c1O)c1cccnc1 (stereo not drawn) | 51.6
N#Cc1ccccc1Nc1ncc(-c2cccc3ccccc23)o1 | 379
Cc1ccc(CNCc2cn[nH]c2-c2ccc(C)cc2)cc1 | > 1000
NC1(c2ccc(NC(=O)c3ccnc(-c4cc(C(=O)O)ccn4)c3)cc2)CC1 | 8.31
C=C1C(=O)O[C@@H]2[C@H]3O[C@]3(C)CC/C=C(\C)CC[C@@H]12 | > 1000
COc1ccc(-n2nc(C3CCCN([S+](=O)([O-])c4cccc(C(F)(F)F)c4)C3)[nH]c2=O)cc1 (stereo not drawn) | 569
Cc1cc(-c2nnc3n2CCCCC3)c(C)n1-c1cccc2ccccc12 | > 1000
Cc1noc(C)c1-c1ccc(Nc2nc(-c3ccncc3)nc3ccccc23)cc1F | 410
O=C1CCC(CNC(=O)c2nc(-c3ccccc3)cc3[nH]ccc23)N1 (stereo not drawn) | 123
CCOC(=O)c1ccc(-c2ccc3ncnc(NCCc4cnc[nH]4)c3c2)o1 | > 1000
NC(=O)C1CCN(c2ncc(-c3cccc(N4CCCC4)c3)s2)CC1 | 95.6
Cc1ccc(S(=O)(=O)Nc2ccccc2C(=O)Nc2nc(-c3ccccc3)c(C)s2)cc1 | 30.1
O=C(Nc1cccc(F)c1)c1cc(-c2ccc[nH]2)n[nH]1 | 136
Cc1ccc(OCCn2c(CCNC(=O)N3CCCCC3)nc3ccccc32)cc1 | > 1000
CC[C@H](NC(=O)[C@H](C)NC)C(=O)N1C[C@@H](O)C[C@H]1Cc1c(-c2[nH]c3cc(F)ccc3c2C[C@H]2C[C@H](O)CN2C(=O)[C@H](CC)NC(=O)[C@H](C)NC)[nH]c2cc(F)ccc12 | < 1
